A word on the melting point: it is the temperature, or range, at which the solid turns liquid.

Where only a bound is given, the exact number is not on record here.

The values that follow come from patent US9645128B2, “Substituted imidazo[1,2-A]pyrazines for measuring a transcription activity” (JNC CORPORATION, priority 2009, dated 2017).

The target in series [1] is T1, 19 kDa protein of Oplophorus luciferase (Oplophorus gracilirostris, UniProt Q9GV45).
T1 construct: made in house
Description: Substrate specificity, luminescence activity and emission spectra of the 19 kDa protein of Oplophorus luciferase. The conditions noted are these: for Maximum emission wavelength λmax (nm): 22 to 25° C.; for Luminescence capacity 10 secs. (%): emission integrated for 10 seconds; for Luminescence capacity 10 secs. (%) / Luminescence activity Imax (%): coelenterazine = 100.0. The format is biochemical, Oplophorus gracilorostris.

For series [2], the target named is T2, Renilla luciferase (Renilla reniformis, UniProt P27652).
T2 construct: made in house
T2 sequence (P27652 1-311): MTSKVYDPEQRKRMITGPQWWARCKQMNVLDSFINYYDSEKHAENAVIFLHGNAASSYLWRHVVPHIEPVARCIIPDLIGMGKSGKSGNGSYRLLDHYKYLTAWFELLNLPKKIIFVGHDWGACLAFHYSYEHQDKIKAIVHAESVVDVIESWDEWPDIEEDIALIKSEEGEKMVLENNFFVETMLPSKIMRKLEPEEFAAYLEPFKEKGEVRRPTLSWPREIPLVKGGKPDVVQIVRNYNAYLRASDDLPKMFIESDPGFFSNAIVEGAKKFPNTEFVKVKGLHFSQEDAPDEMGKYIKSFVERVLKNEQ
Briefly: Substrate specificity, luminescence activity and emission spectra of Renilla luciferase. The format is biochemical. The conditions noted are these: for Luminescence activity Imax (%) / Luminescence capacity 10 secs. (%) / Maximum emission wavelength λmax (nm): Renilla luciferase; for Luminescence activity Imax (%) / Luminescence capacity 10 secs. (%): coelenterazine = 100.0; for Maximum emission wavelength λmax (nm): 22 to 25° C. An excerpt: Res. Commun. (1997) 233: 349-353, which was provided for use.

The target of series [3] is T3, recombinant apoaequorin (Aequorea victoria, UniProt P07164). Briefly: Luminescence patterns and half decay time of semi-synthetic aequorins. In kind it is biochemical. Further details: purchased Chisso Corporation. The conditions noted are these: for Half decay time sec.: semi-synthetic aequorin, time to reach half of the maximum luminescence intensity. Here is the method: The dilution was dispensed into a 96-well microplate (Nunc #236108) in 5 μl/well. […] The luminescence patterns for 60 seconds were measured to determine the half decay time of luminescence (time period to reach the half of the maximum luminescence intensity).

The target of series [4] is T3, recombinant apoaequorin. Briefly: Calcium standard curve with semi-synthetic aequorins. The conditions noted are these: Imax versus 10^-3 M to 10^-8 M calcium. Details: purchased Chisso Corporation. In kind it is biochemical. Here is the method:
The dilution series was prepared by the serial process above to prepare standard calcium solution of 10^−3 M to 10^−8 M.
The semi-synthetic aequorin obtained was concentrated using Amicon Ultra-4 (manufactured by Millipore, molecular weight cut off, 10.000).
This semi-synthetic aequorin solution (2.5 mg/ml) was diluted with 20 mM Tris-HCl (pH 7.6) containing 0.1% BSA (manufactured by Sigma), 0.01 mM EDTA and 150 mM NaCl.
The calcium standard solution prepared as described above was dispensed into a 96-well microplate (Nunc #236108) in 50 μl/well, and the semi-synthetic aequorin solution diluted was injected in […]. The luminescence intensity was measured for 60 seconds using a luminescence plate reader Centro LB960 (manufactured by Berthold) and expressed in terms of the maximum luminescence intensity (Imax). The luminescence intensity was measured for each semi-synthetic aequorin in the same fashion. Based on the maximum luminescence intensity (Imax) obtained, the calcium standard curve for each semi-synthetic aequorin was prepared.

For series [5], the target named is T3, recombinant apoaequorin. Briefly: Emission spectra of semi-synthetic aequorins by addition of calcium ions. The conditions noted are these: for Maximum emission wavelength λmax (nm): semi-synthetic aequorin, 22 to 25° C.; for Emission spectra of semi-synthetic aequorins compared with known analogs (FIG. 3): compared to h-CTZ and i-CTZ.
Description: In a quartz cell with an optical path length of 10 mm, 1 ml of 50 mM Tris-HCl (pH 7.6) containing 1 mM EDTA and 100 μl (100 μg protein) of a solution of the regenerated semi-synthetic aequorin were charged and they were mixed. Subsequently, 100 μl of 50 mM Tris-HCl (pH 7.6) containing 0.1 ml of 10 mM calcium chloride solution was added to the mixture to trigger the luminescence reaction. The spectra were measured on a spectrofluorimeter (FP-6500, manufactured by JASCO Corporation) with the excitation source turned off. The measurement conditions used were as follows: band width, 20 nm; response, 0.5 second and scan speed, 2000 nm/min at 22 to 25° C.
The test system of series [6] is Gaussia luciferase. Briefly: Substrate specificity, luminescence activity and emission spectra of Gaussia luciferase. The conditions noted are these: for Luminescence activity Imax (%) / Luminescence capacity 10 secs. (%): Gaussia luciferase, coelenterazine = 100.0.
Description: The luminescence activity was measured for 10 seconds using a luminometer Luminescencer-PSN AB2200 (manufactured by Atto Co., Ltd.). The luminescence activity was measured 3 times and expressed as the maximum intensity (Imax) of luminescence.
The target of series [7] is T3, recombinant apoaequorin. Description: Production of semi-synthetic aequorins and measurement of luminescence activity (Imax, luminescence capacity). The conditions noted are these: for Ability to act as luminescence substrate for semi-synthetic aequorins (FIG. 1): regeneration 0.5 to 18 hours at 4° C.; for Luminescence activity Imax (%) / Luminescence capacity 60 sec (%): semi-synthetic aequorin, coelenterazine = 100.0; for Luminescence activity Imax (%): Ca2+-triggered, maximum intensity; for Luminescence capacity 60 sec (%): emission integrated for 60 seconds.
Description: In order to confirm the regeneration time and regeneration efficiency from apoaequorin to the semi-synthetic aequorin, the luminescence activity was assayed at the respective points of the regeneration process (at the respective points of 0.5, 1, 1.5, 2, 3 and 18 hours from the start of regeneration).
Specifically, the luminescence activity described above was measured as follows. The luminescence reaction was started by adding 100 μl of 50 mM Tris-HCl (pH 7.6) containing 50 mM calcium chloride solution to 2 μl of a solution of the semi-synthetic aequorin at each regeneration process. The luminescence activity was measured for 10 seconds with a luminometer Luminescencer-PSN AB2200 (manufactured by Atto Co., Ltd.). The measured values were represented as the maximum intensity (Imax) of luminescence. The emission for 60 seconds was integrated, which was made a luminescence capacity.

T1 sequence (Q9GV45 28-196): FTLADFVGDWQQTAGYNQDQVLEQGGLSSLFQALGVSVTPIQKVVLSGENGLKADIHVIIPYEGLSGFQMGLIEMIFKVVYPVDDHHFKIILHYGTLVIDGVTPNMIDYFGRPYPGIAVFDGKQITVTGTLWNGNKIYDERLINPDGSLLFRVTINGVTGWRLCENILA
T3 sequence (P07164 other isoform, or with tags, fused parts or gaps with the stated changes): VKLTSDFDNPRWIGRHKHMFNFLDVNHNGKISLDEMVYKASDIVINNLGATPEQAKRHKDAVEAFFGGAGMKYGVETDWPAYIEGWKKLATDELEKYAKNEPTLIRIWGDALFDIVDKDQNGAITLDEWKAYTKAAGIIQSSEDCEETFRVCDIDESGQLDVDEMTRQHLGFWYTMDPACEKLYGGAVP

Turning to `CC(c1ccccc1)c1nc2c(Cc3ccccc3)[nH]c(-c3ccc(O)cc3)cn-2c1=O` (stereo not shown) [αmeh-CTZ, αmeh-coelenterazine], the melting point is 143 to 145 °C (dec.). Further, in series [1] (Oplophorus luciferase), the “Maximum emission wavelength λmax (nm)” value stood at 457.0 nm, the “Luminescence capacity 10 secs. (%)” value was 19.0% and the “Luminescence activity Imax (%)” value is 15.6%. In series [1] (TABLE 2), the “Quality as luminescence substrate for Oplophorus luciferase” value (“Quality … for Oplophorus luciferase” below) was “relatively good luminescence substrates”. Moreover, in series [2], the “Luminescence activity Imax (%)” value is 0.0% and the “Luminescence capacity 10 secs. (%)” value is 0.0%. The “Half decay time sec.” value in series [3] worked out at 0.35 s. The “Calcium standard curve with semi-synthetic aequorin (FIG. 4)” value (from here on “Calcium standard curve”) in series [4] is “calcium standard curves can be prepared”. In addition, the “Maximum emission wavelength λmax (nm)” value in series [5] is 467.5 nm. Further, in series [6], the “Luminescence activity Imax (%)” value was over 0.01% and the “Luminescence capacity 10 secs. (%)” value is given as over 0.01%. The “Ability to act as luminescence substrate for semi-synthetic aequorins (FIG. 1)” value (“Ability to act as luminescence substrate” below) in series [7] is recorded as “can be luminescence substrates for semi-synthetic aequorins”.

For `Cc1cccc(Cc2nc3c(Cc4ccccc4)[nH]c(-c4ccc(O)cc4)cn-3c2=O)c1` [3me-CTZ, 3me-coelenterazine], the melting point is 142 to 145 °C (dec.). For the same compound, in series [1] (Oplophorus luciferase), the “Maximum emission wavelength λmax (nm)” value is recorded as 455.5 nm, the “Luminescence capacity 10 secs. (%)” value is reported as 122.8% and the “Luminescence activity Imax (%)” value came to 80.0%. Further, the “Luminescence activity and/or capacity compared to known h-CTZ” value in series [1] (Oplophorus luciferase, TABLE 2) was “high luminescence activity and/or luminescence capacity”. The “Quality … for Oplophorus luciferase” value in series [1] (TABLE 2) is given as “relatively good luminescence substrates”. Also, in series [2], the “Maximum emission wavelength λmax (nm)” value is 471.5 nm, the “Luminescence activity Imax (%)” value was found to be 12.7% and the “Luminescence capacity 10 secs. (%)” value is reported as 13.1%. Further, the “Half decay time sec.” value in series [3] was 0.51 s. In addition, the “Calcium standard curve” value in series [4] is “calcium standard curves can be prepared”. Further, in series [5], the “Emission spectra of semi-synthetic aequorins compared with known analogs (FIG. 3)” value is “exhibit different emission spectra from those of known coelenterazine analogs” and the “Maximum emission wavelength λmax (nm)” value worked out at 466.0 nm. In addition, in series [6], the “Luminescence activity Imax (%)” value is reported as 2.6% and the “Luminescence capacity 10 secs. (%)” value came to 2.1%. Besides, the “Ability to act as luminescence substrate” value in series [7] was “can be luminescence substrates for semi-synthetic aequorins”.

Take `Cc1ccc(Cc2nc3c(Cc4ccccc4)[nH]c(-c4ccc(O)cc4)cn-3c2=O)cc1` [me-CTZ, me-coelenterazine]: the melting point was 150 to 152 °C (dec.). Also, in series [1] (Oplophorus luciferase), the “Maximum emission wavelength λmax (nm)” value worked out at 454.4 nm, the “Luminescence capacity 10 secs. (%)” value stood at 82.7% and the “Luminescence activity Imax (%)” value worked out at 46.6%. Also, the “Quality … for Oplophorus luciferase” value in series [1] (TABLE 2) is on record as “relatively good luminescence substrates”. Moreover, in series [2], the “Maximum emission wavelength λmax (nm)” value is 472.0 nm, the “Luminescence activity Imax (%)” value turned out to be 6.6% and the “Luminescence capacity 10 secs. (%)” value was found to be 7.0%. Moreover, the “Ability to act as substrate for Renilla luciferase” value in series [2] (TABLE 4) is “can be substrates for Renilla luciferase”. In addition, the “Half decay time of luminescence compared with CTZ” value in series [3] (semi-synthetic aequorin (FIG. 2, TABLE 1)) is recorded as “longer than CTZ”. The “Half decay time sec.” value in series [3] was 5.00 s. In addition, the “Calcium standard curve” value in series [4] was “calcium standard curves can be prepared”. Also, in series [5], the “Emission spectra of semi-synthetic aequorins compared with known analogs (FIG. 3)” value was “exhibit different emission spectra from those of known coelenterazine analogs” and the “Maximum emission wavelength λmax (nm)” value worked out at 469.5 nm. In series [6], the “Luminescence activity Imax (%)” value amounted to 4.5% and the “Luminescence capacity 10 secs. (%)” value worked out at 5.9%. For the same compound, in series [6] (TABLE 3), the “Quality as luminescence substrate for Gaussia luciferase” value is reported as “effective luminescence substrates”. Besides, the “Ability to act as luminescence substrate” value in series [7] is recorded as “can be luminescence substrates for semi-synthetic aequorins”.

As to “coelenterazine [CTZ, reference compound]”, the “Maximum emission wavelength λmax (nm)” value in series [1] (Oplophorus luciferase) was 457.0 nm; in series [2] it was 472.5 nm; in series [5] it was 465.5 nm. Besides, the “Luminescence capacity 10 secs. (%)” value in series [1] (Oplophorus luciferase), in series [2] and in series [6] was 100.0% each time. The “Luminescence activity Imax (%)” value in series [1] (Oplophorus luciferase), in series [2], in series [6] and in series [7] was 100.0% each time. For the same compound, in series [3], the “Half decay time sec.” value was 0.81 s. For the same compound, in series [7], the “Luminescence capacity 60 sec (%)” value was determined as 100.0%.

As for `Oc1ccc(-c2cn3c(O)c(Cc4ccccc4)nc3c(Cc3ccccc3)n2)cc1` [h-CTZ, h-coelenterazine, reference compound], the “Maximum emission wavelength λmax (nm)” value in series [1] (Oplophorus luciferase) is recorded as 456.5 nm; in series [2] it was 472.5 nm; in series [5] it was 465.5 nm. Besides, the figures for the “Luminescence capacity 10 secs. (%)” value in series [1] (Oplophorus luciferase), in series [2] and in series [6] were 110.2%, 90.3% and 7.2%, respectively. Besides, the “Luminescence activity Imax (%)” value is listed as 68.4% in series [1] (Oplophorus luciferase), 78.6% in series [2], 5.8% in series [6] and 87.9% in series [7]. The “Half decay time sec.” value in series [3] amounted to 0.69 s. Besides, the “Luminescence capacity 60 sec (%)” value in series [7] is on record as 70.1%.

As for “n-coelenterazine [n-CTZ, reference compound]”, the “Half decay time sec.” value in series [3] was determined as 4.71 s. Further, the “Maximum emission wavelength λmax (nm)” value in series [5] worked out at 467.0 nm. Further, in series [7], the “Luminescence activity Imax (%)” value is listed as 3.6% and the “Luminescence capacity 60 sec (%)” value came to 24.0%.

Regarding et-coelenterazine [et-CTZ], in series [1] (Oplophorus luciferase), the “Maximum emission wavelength λmax (nm)” value was 454.0 nm, the “Luminescence capacity 10 secs. (%)” value is on record as 39.5% and the “Luminescence activity Imax (%)” value is reported as 21.1%. Further, the “Quality … for Oplophorus luciferase” value in series [1] (TABLE 2) was “relatively good luminescence substrates”. In series [2], the “Maximum emission wavelength λmax (nm)” value is listed as 471.0 nm, the “Luminescence activity Imax (%)” value worked out at 0.5% and the “Luminescence capacity 10 secs. (%)” value was found to be 0.3%. In series [3], the “Half decay time sec.” value turned out to be 1.21 s. Besides, the “Calcium standard curve” value in series [4] is listed as “calcium standard curves can be prepared”. In series [5], the “Emission spectra of semi-synthetic aequorins compared with known analogs (FIG. 3)” value is given as “exhibit different emission spectra from those of known coelenterazine analogs” and the “Maximum emission wavelength λmax (nm)” value worked out at 472.0 nm. Moreover, in series [6], the “Luminescence activity Imax (%)” value amounted to 0.9% and the “Luminescence capacity 10 secs. (%)” value amounted to 1.1%. In addition, in series [7], the “Ability to act as luminescence substrate” value is listed as “can be luminescence substrates for semi-synthetic aequorins”, the “Luminescence activity Imax (%)” value was 27.3% and the “Luminescence capacity 60 sec (%)” value was 44.1%.

“i-coelenterazine [i-CTZ, reference compound]”: the “Maximum emission wavelength λmax (nm)” value in series [1] (Oplophorus luciferase) came out at 450.0 nm; in series [2], 473.0 nm; in series [5], 472.0 nm. For the same compound, the “Luminescence capacity 10 secs. (%)” value in series [1] (Oplophorus luciferase) is reported as 53.8%; in series [2], 0.3%; in series [6], 1.3%. Moreover, the “Luminescence activity Imax (%)” value was found to be 32.3% in series [1] (Oplophorus luciferase), 0.2% in series [2], 0.9% in series [6] and 5.0% in series [7]. Moreover, in series [3], the “Half decay time sec.” value came to 11.42 s. The “Luminescence capacity 60 sec (%)” value in series [7] stood at 65.3%.
